Experimental data published in patent publication EP0048954A2, “Beta-lactam compounds, process for the preparation thereof and intermediate products for the preparation thereof” (SAGAMI CHEMICAL RESEARCH CENTER, priority 1980, dated 1982).
Values after ≈ are worked out from the molar mass of the structure shown. Where a name gives a salt, the structure may show the parent alone. Read-outs that look alike come from different tables or passages of the source.

Tests used:
Assay in all cases: Antibacterial activity, minimum inhibition concentration (method of The Chemotherapy Association, Japan)
Format in all cases: cell-based
Proteus vulgaris OX-19 = conditions: Proteus vulgaris
Excerpt: (§1) The abbreviations A to P will be used in the following Tables 2 to 8.
(§2) Test results are shown in terms of the minimum inhibition concentration (µg/mℓ.) in the following Tables 2 to 8.

Proteus rettgeri NIH-96 = conditions: Providencia rettgeri
Excerpt: as §1, §2

Escherichia coli NIHJ = conditions: Escherichia coli, read-out: minimum inhibition concentration
Experimental: (§3) Antibacterial activities of the compounds according to this invention, which had been prepared in the preceding Examples, were measured according to the method prescribed by The Committee of Amendment of "The method for measurement of the minimum inhibition concentration", The Chemotherapy Association, Japan (See Chemotherapy, Vol. 22, No. 6, pp. 1126 - 1128 (1974) and Vol. 29, No. 1, pp. 76 - 79 (1981)).
as §1, §2

[1] = system: Staphylococcus aureus 6538-P
Experimental: as §3, §1, §2

[2] = system: Salmonella typhimurium 3173; conditions: Salmonella enterica, TYPHIMURIUM
Experimental: as §3, §1, §2

[3] = system: Bacillus subtilis ATCC 6633; conditions: for MIC: Bacillus subtilis
Experimental: as §3, §1, §2

Klebsiella pneumoniae = conditions: Klebsiella pneumoniae
Experimental: as §3, §1, §2

[4] = system: Serratia marcescens IFO-3736; conditions: Serratia marcescens
Experimental: as §3, §1, §2

[5] = system: Proteus mirabillis B-30-2 IFO-3849
Experimental: as §3, §1, §2

Proteus morgani Kono = conditions: read-out: minimum inhibition concentration
Experimental: as §3, §1, §2

[6] = system: Citrobactor freundii NIH-10018 -68; conditions: read-out: minimum inhibition concentration
Experimental: as §3, §1, §2

[7] = system: Pseudomonas aeruginosa NCTC-10490; conditions: Pseudomonas aeruginosa
Experimental: as §3, §1, §2

Escherichia coli NIHJC-2 = conditions: Escherichia coli
Experimental: as §3, §1, §2

Serratia marcescens 1023 = system: Serratia marcescens 1023
Experimental: as §3, §1, §2

[8] = system: Enterobactor cloacae NCTC-9394; conditions: read-out: minimum inhibition concentration
Experimental: as §3, §1, §2

[9] = OX19, strain H: Proteus vulgaris OX-19, read-out: minimum inhibition concentration
[10] = NIH96, strain I: Proteus rettgeri NIH-96, read-out: minimum inhibition concentration
[11] = strain K: Escherichia coli NIHJ
[12] = strain A: Staphylococcus aureus 6538-P, read-out: minimum inhibition concentration
[13] = strain D: Salmonella typhimurium 3173, read-out: minimum inhibition concentration
[14] = ATCC6633, strain B: Bacillus subtilis ATCC 6633, read-out: minimum inhibition concentration
[15] = strain C: Klebsiella pneumoniae, read-out: minimum inhibition concentration
[16] = IFO3736, strain F: Serratia marcescens IFO-3736, read-out: minimum inhibition concentration
[17] = strain G: Proteus mirabillis B-30-2 IFO-3849, read-out: minimum inhibition concentration
[18] = strain O: Citrobactor freundii NIH-10018 -68
[19] = NCTC10490, strain M: Pseudomonas aeruginosa NCTC-10490, read-out: minimum inhibition concentration
[20] = NIHJC2, strain L: Escherichia coli NIHJC-2, read-out: minimum inhibition concentration
[21] = Serratia marcescens, 1023, strain E: Serratia marcescens 1023, read-out: minimum inhibition concentration
[22] = strain N: Enterobactor cloacae NCTC-9394

Row | Compound | MIC (Proteus vulgaris OX-19; [9]) [µg/mL] | MIC (Proteus rettgeri NIH-96; [10]) [µg/mL] | MIC (Escherichia coli NIHJ; [11]) [µg/mL] | MIC [1, 12] [µg/mL] | MIC [2, 13] [µg/mL] | MIC [3, 14] [µg/mL] | MIC (Klebsiella pneumoniae; [15]) [µg/mL] | MIC [4, 16] [µg/mL] | MIC [5, 17] [µg/mL] | MIC (Proteus morgani Kono; strain J: Proteus morgani Kono) [µg/mL] | MIC [6, 18] [µg/mL] | MIC [7, 19] [µg/mL] | MIC (Escherichia coli NIHJC-2; [20]) [µg/mL] | MIC (Serratia marcescens 1023; [21]) [µg/mL] | MIC [8, 22] [µg/mL] | further results
1 | CC1=C(C(=O)O)N2C(=O)C(NC(=O)C(=CCl)c3csc(N)n3)C2SC1 (single isomer, unassigned) [Compound 23, 7-[2-chlromethylene-2-(2-aminothiazol-4-yl)acetamido]-desacetoxycephelosporanic acid sodium salt] | 12.5 | 0.39 | 6.25 | 3.12 | 50 | 50 | 50 | > 100 | 25 | > 100 | 100 | > 100 | 100 | 100 | 12.5 | –
2 | CC(=O)OCC1=C(C(=O)O)N2C(=O)C(NC(=O)C(=C(Cl)Cl)c3cccc(O)c3)[C@H]2SC1 (stereo partly drawn) [Compound 3, 7-[2-dichloromethylene-2-(3-hydroxyphenyl)acetamido]-3-acetoxymethyl-3-cephem-4-carboxylic acid] | 0.76 (≈ 1.56 µM) | 0.1 (≈ 0.205 µM) | 0.2 (≈ 0.41 µM) | 0.39 (≈ 0.8 µM) | 12.5 (≈ 25.7 µM) | 3.12 (≈ 6.41 µM) | 50 (≈ 103 µM) | 50 (≈ 103 µM) | 50 (≈ 103 µM) | 100 (≈ 205 µM) | 25 (≈ 51.3 µM) | 6.25 (≈ 12.8 µM) | 50 (≈ 103 µM) | 0.25 (≈ 0.513 µM) | 12.5 (≈ 25.7 µM) | –
3 | CC(=O)OCC1=C(C(=O)O)N2C(=O)C(NC(=O)C(=C(Cl)Cl)c3cccn3C)[C@H]2SC1 (stereo partly drawn) [Compound 36, 7-[2-dichloromethylene-2-(1-methyl-2-pyrrolyl)acetamido]-3-acetoxymethyl-3-cephem-4-carboxylic acid] | 50 (≈ 105 µM) | 1.56 (≈ 3.29 µM) | 50 (≈ 105 µM) | 0.78 (≈ 1.64 µM) | > 100 | 12.5 (≈ 26.4 µM) | > 100 | > 100 | > 100 | > 100 | > 100 | > 100 | > 100 | 100 (≈ 211 µM) | > 100 | –
4 | CC(=O)OCC1=C(C(=O)O)N2C(=O)C(NC(=O)C(=C(Cl)Cl)c3ccc(Cl)cc3)[C@H]2SC1 (stereo partly drawn) [Compound 29, 7-[2-dichloromethylene-2-(4-chlorophenyl)acetamido]-3-acetoxymethyl-3-cephem-4-carboxylic acid] | > 100 | 3.12 (≈ 6.18 µM) | 100 (≈ 198 µM) | > 100 | > 100 | 1.56 (≈ 3.08 µM) | > 100 | > 100 | > 100 | > 100 | > 100 | > 100 | > 100 | 12.5 (≈ 24.7 µM) | > 100 | –
5 | CC1(C)S[C@@H]2C(NC(=O)C(=C(Cl)Cl)c3cccs3)C(=O)N2[C@H]1C(=O)O (stereo partly drawn) [Compound 37, 6-[2-dichloromethylene-2-(2-thienyl)acetamido]-penicillanic acid] | 50 (≈ 119 µM) | 0.25 (≈ 0.593 µM) | 0.78 (≈ 1.85 µM) | 0.1 (≈ 0.237 µM) | > 100 | 1.56 (≈ 3.7 µM) | > 100 | > 100 | > 100 | > 100 | > 100 | 6.25 (≈ 14.8 µM) | > 100 | 0.05 (≈ 0.119 µM) | 100 (≈ 237 µM) | –
6 | CC(=O)OCC1=C(C(=O)O)N2C(=O)C(NC(=O)C(=C(Cl)Cl)c3csc(NC(=O)OC(C)(C)C)n3)C2SC1 (stereo not drawn) [5-(1), 7-[2-dichloromethylene-2-(2-tert-butoxycarbonyl-aminothiazol-4-yl)acetamido]-3-acetoxymethyl-3-cephem-4-carboxylic acid] | 0.39 (≈ 0.657 µM) | < 0.025 | 0.1 (≈ 0.169 µM) | 1.56 (≈ 2.63 µM) | 12.5 (≈ 21.1 µM) | 25 (≈ 42.1 µM) | 12.5 (≈ 21.1 µM) | 12.5 (≈ 21.1 µM) | 12.5 (≈ 21.1 µM) | 12.5 (≈ 21.1 µM) | 25 (≈ 42.1 µM) | 12.5 (≈ 21.1 µM) | 25 (≈ 42.1 µM) | 25 (≈ 42.1 µM) | 12.5 (≈ 21.1 µM) | –
7 | Cn1nnnc1SCC1=C(C(=O)O)N2C(=O)C(NC(=O)C(=C(Cl)Cl)c3csc(N)n3)C2SC1 (stereo not drawn) [6-(2), 7-[2-dichloromethylene-2-(2-aminothiazol-4-yl)-acetamido]-3-(l-methyl-lH-tetrazol-5-yl)thiomethyl-3-cephem-4-carboxylic acid] | 0.1 (≈ 0.182 µM) | < 0.025 | < 0.025 | 0.78 (≈ 1.42 µM) | 6.25 (≈ 11.4 µM) | – | 12.5 (≈ 22.8 µM) | 25 (≈ 45.5 µM) | 12.5 (≈ 22.8 µM) | 6.25 (≈ 11.4 µM) | 6.25 (≈ 11.4 µM) | 3.12 (≈ 5.69 µM) | 12.5 (≈ 22.8 µM) | 12.5 (≈ 22.8 µM) | 1.56 (≈ 2.84 µM) | minimum inhibition concentration ([3]; strain B: Bacillus subtilis ATCC 6633): 6.25 µg/mL (≈ 11.4 µM)
8 | CSc1nnc(SCC2=C(C(=O)[O-])N3C(=O)C(NC(=O)C(=CCl)c4csc(N)n4)[C@H]3SC2)s1.[Na+] (stereo partly drawn) [Compound 21, 7-[2-chloromethylene-2-(2-aminothiazol-4-yl)acetamido]-3-(2-methylthio-1,3,4-thiadiazol-5-yl)thiomethyl-3-cephem-4-carboxylic acid sodium salt] | – | – | – | – | – | – | – | – | – | – | – | – | – | – | – | MIC (Proteus vulgaris OX-19; OX19, read-out: minimum inhibition concentration, strain H: Proteus vulgaris OX-19): 0.025 µg/mL; MIC (Proteus rettgeri NIH-96; NIH96, read-out: minimum inhibition concentration, strain I: Proteus rettgeri NIH-96): < 0.00625 µg/mL; MIC (Escherichia coli NIHJ): < 0.00625 µg/mL; MIC ([1]; Staphylococcus aureus, 6538P, read-out: minimum inhibition concentration, strain A: Staphylococcus aureus 6538-P): 0.2 µg/mL; MIC ([2]; read-out: minimum inhibition concentration, strain D: Salmonella typhimurium 3173): 3.12 µg/mL; MIC ([3]; ATCC6633, read-out: minimum inhibition concentration, strain B: Bacillus subtilis ATCC 6633): 3.12 µg/mL; MIC (Klebsiella pneumoniae; read-out: minimum inhibition concentration, strain C: Klebsiella pneumoniae): 3.12 µg/mL; MIC ([4]; IFO3736, read-out: minimum inhibition concentration): 3.12 µg/mL; MIC ([5]; read-out: minimum inhibition concentration, strain G: Proteus mirabillis B-30-2 IFO-3849): 1.56 µg/mL; MIC (Proteus morgani Kono): 0.78 µg/mL; MIC [6]: 3.12 µg/mL; MIC ([7]; NCTC10490, read-out: minimum inhibition concentration): 6.25 µg/mL; MIC (Escherichia coli NIHJC-2; NIHJC2, read-out: minimum inhibition concentration): 1.56 µg/mL; MIC (Serratia marcescens 1023; Serratia marcescens, 1023, read-out: minimum inhibition concentration, strain E: Serratia marcescens 1023): 3.12 µg/mL; MIC [8]: 0.39 µg/mL
